Read-outs that look alike come from different tables or passages of the source.
Key:
Type in all cases: cell-based
[1] = tested on: Mycobacterium tuberculosis 4 strains assayed; settings: for % Sensitivity: 4 strains; for n° (sensitive strains): of 4 strains
[2] = tested on: Mycobacterium tuberculosis multiresistant 17 strains assayed; settings: for % Sensitivity: 17 strains; for n° (sensitive strains): of 17 strains
[3] = tested on: multiresistant Mycobacterium tuberculosis; assay: microbe, parasite or virus in culture; settings: for sensitivity (of strains): concentration of about 1 μg/ml, all strains of Example 34; for antimycobacterial activity compared with rifampicin and rifabutin: in vitro, in words; for MIC: Mycobacterium tuberculosis
[4] = concentration analized 0.1 μg/ml
[5] = concentration analized 0.5 μg/ml

Molecule	% Sensitivity [1, 4]	n° (sensitive strains) [1, 4]	% Sensitivity [1, 5]	n° (sensitive strains) [1, 5]	% Sensitivity ([1]; concentration analized 1 μg/ml)	n° (sensitive strains) ([1]; concentration analized 1 μg/ml)	% Sensitivity [2, 4]	n° (sensitive strains) [2, 4]	% Sensitivity [2, 5]	n° (sensitive strains) [2, 5]	% Sensitivity ([2]; concentration analized 1 μg/ml)	n° (sensitive strains) ([2]; concentration analized 1 μg/ml)	sensitivity (of strains) [3]	antimycobacterial activity compared with rifampicin and rifabutin [3]	Sensitivity of strains (S/R) ([2]; concentration analized 0.2 μg/ml)	MIC [3]	Sensitivity of strains (S/R) ([1]; concentration analized 1 μg/ml)	Sensitivity of strains (S/R) ([2]; concentration analized 1 μg/ml)
4-deoxo-3,4-[(2R)-2-spiro(2,6-diphenyl-4-piperidyl)-2,5-dihydro-1H-imidazo]rifamycin S [RFA 3M]	25%	1	50%	2	100%	4	23%	4	75%	13	94%	16	about 95.2%	much superior to rifampicin and to rifabutin	–	–	–	–
4-deoxo-3,4-[(2R)-2-spiro[2,6-bis(4-fluorophenyl)-4-piperidil]-2,5-dihydro-1H-imidazo]rifamycin S [RFA 5M]	25%	1	50%	2	100%	4	17%	3	82%	14	100%	17	about 100%	much superior to rifampicin and to rifabutin	–	–	–	–
NNC(=O)c1ccncc1 [IZ, isoniazid]	–	–	–	–	–	–	–	–	–	–	–	–	–	–	R (R means resistent)	> 256 µg/mL	–	–
CO[C@H]1/C=C/O[C@@]2(C)Oc3c(C)c(O)c4c(c3C2=O)C2=NC3(CCN(CC(C)C)CC3)NC2=C(NC(=O)/C(C)=C\C=C\[C@H](C)[C@H](O)[C@@H](C)[C@@H](O)[C@@H](C)[C@H](OC(C)=O)[C@@H]1C)C4=O [RFB, rifabutin]	–	–	–	–	–	–	–	–	–	–	–	–	about 14.3%	–	–	–	–	–
CO[C@H]1/C=C/O[C@@]2(C)Oc3c(C)c(O)c4c(O)c(c(/C=N/N5CCN(C)CC5)c(O)c4c3C2=O)NC(=O)/C(C)=C\C=C\[C@H](C)[C@H](O)[C@@H](C)[C@@H](O)[C@@H](C)[C@H](OC(C)=O)[C@@H]1C [RI, rifampicin]	–	–	–	–	–	–	–	–	–	–	–	–	–	–	–	> 256 µg/mL	R (R means resistent)	R (R means resistent)

Source: patent US7521458B2, “Spiropiperidylrifamycins for the treatment of mycobacterial infections” (priority 2004, dated 2009)
